This is an account of results in patent US20240116921A1, “LACTAM (HETERO)[…] DERIVATIVES AS INHIBITORS OF ERBB2” (EnLiven Therapeutics, Inc., priority 2020, published 2024).

Where only a bound is given, the exact number is not on record here.

The subject of assay [1] is BT-474. The experiment in a line: Cell viability assay (CellTiter Glo), BT-474. It is filed as cell-based. Conditions: Homo sapiens; BT-474 cells, 72 hours, CellTiter Glo; read-out: IC50, cell viability, BT-474. For orientation: ATP-based viability assays read luminescence as a measure of living cells.
The target in assay [2] is BaF3-EGFR-V769_D770insASV (Homo sapiens, UniProt P00533, DUP767-769, cells depend on it). The experiment in a line: Cell viability assay, BaF3-EGFR-V769_D770insASV. It is filed as cell-based, mouse. The note with it: 72 hours, CellTiter Glo, read-out: IC50, cell viability, BaF3-EGFR-V769_D770insASV. Here is the method:
(§1) Cells were treated with compounds, and cell viability was measured as a metric of kinase inhibition.
(§2) The Ba/F3 cell line is IL-3-dependent mouse cell line derived from the C3H mouse strain. Ba/F3 cell lines were engineered to express human ERBB2 or EGFR kinases, rendering the cells IL-3 independent. The lines were generated via retroviral transduction utilizing a Moloney murine leukemia virus (MMLV) promoter, and constructs are stably integrated into the cell genome. The sequences of the ERBB2 and EGFR genes used were NCBI Reference Sequences NM_004448.3 and NM_005228.3, respectively.
(§3) Similarly, Ba/F3 cell lines engineered to express EGFR, ERBB2, or ERBB2 mutants were grown, harvested, counted and seeded at 3000 cells per well in 96-well plates. A subset of wells contained media only (low control, “LC”).
(§4) Table B1 provides the growth media and number of cells seeded per well for the each cell line.
(§5) Plates were placed in a 37° C., 5% CO2 incubator for 72 hours. Plates were then removed from the incubator and equilibrated for 15 minutes at room temperature. 40 μl of CellTiter Glo reagent (Promega) was added to measure the relative level of metabolically active cells by quantifying intracellular ATP concentrations. Plates were incubated for 30 minutes at room temperature, and luminescence was measured. […]

Assay [3] has as its target T1, phosphorylated EGFR (pEGFR) (Homo sapiens, UniProt P00533).
T1 construct: performed to measure phosphorylated EGFR levels using A431 cells (10% FBS); endogenous in cells; host or cells: A431
The experiment in a line: Detection of phosphorylated EGFR (pEGFR) in EGF-stimulated A431 cells. In kind it is cell-based. The note with it: A431 cells (10% FBS), 4 hours incubation, EGF 30 ng/mL 10 minutes, AlphaLISA. Put shortly:
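A431 cells in 10% FBS were preincubated with compound for 4 h at 37 °C, then stimulated with EGF (30 ng/mL final) for 10 min. pEGFR in lysates was read by AlphaLISA. % inhibition was calculated against DMSO and staurosporine-treated controls, and IC50 came from a four-parameter curve fit.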
In general terms: Bead proximity is the source of the signal in Alpha formats.

In assay [4] the test system is MDA-MB-175VII. The experiment in a line: Cell viability assay (CellTiter Glo), MDA-MB-175VII. It is filed as cell-based. Conditions: Homo sapiens; MDA MB 175VII cells, 72 hours, CellTiter Glo; read-out: IC50, cell viability, MDA MB 175VII. The protocol: as §1, §2, §3, §4
(§6) Plates were placed in a 37° C., 5% CO2 incubator for 72 hours. Plates were then removed from the incubator and equilibrated for 15 minutes at room temperature. 40 μl of CellTiter Glo reagent (Promega) was added to measure the relative level of metabolically active cells by quantifying intracellular ATP concentrations. Plates were incubated for 30 minutes at room temperature, and luminescence was measured. Percent viability was normalized to a vehicle control only using the following formula: % viability=100×(Lumsample−LumLC)/(LumHC−Lum^LC). Graphical curves were fitted using a nonlinear regression model with a sigmoidal dose response.

Assay [5] addresses BaF3_EGFR-D770-N771insSVD (Homo sapiens, UniProt P00533, DUP768-770, cells depend on it). As to the kind of experiment: Cell viability assay, BaF3_EGFR-D770-N771insSVD. It is filed as cell-based, mouse. The note with it: 72 hours, CellTiter Glo, read-out: IC50, cell viability, BaF3_EGFR-D770-N771insSVD. The protocol: as §1, §2, §3, §4, §5
Assay [6] concerns the target Ba/F3 ERBB2-V777_G778insGC (Homo sapiens, UniProt P04626, INS778CG, cells depend on it). The experiment in a line: Cell viability assay, Ba/F3 ERBB2-V777_G778insGC. It is filed as cell-based, mouse. The note with it: 72 hours, CellTiter Glo, read-out: IC50, cell viability, Ba/F3 ERBB2-V777_G778insGC. The protocol:
as §1, §2, §3, §4, §6

The target of assay [7] is Ba/F3 ERBB2-G776VC (Homo sapiens, UniProt P04626, DELINS776-776VC, cells depend on it). As to the kind of experiment: Cell viability assay, Ba/F3 ERBB2-G776VC. In kind it is cell-based, mouse. Conditions: 72 hours, CellTiter Glo, read-out: IC50, cell viability, Ba/F3 ERBB2-G776VC. The protocol:
as §1, §2, §3, §4, §6

The target of assay [8] is BaF3_EGFR-H773_V774insNPH (Homo sapiens, UniProt P00533, DUP771-773, cells depend on it). The experiment in a line: Cell viability assay, BaF3_EGFR-H773_V774insNPH. It is filed as cell-based, mouse. Conditions: 72 hours, CellTiter Glo, read-out: IC50, cell viability, BaF3_EGFR-H773_V774insNPH. The protocol:
as §1, §2, §3, §4, §5

In assay [9] the target is Ba/F3 EGFR wt (Homo sapiens, UniProt P00533). The experiment in a line: Cell viability assay, Ba/F3 EGFR wt. The note with it: Ba/F3 EGFR wt cells, 72 hours, CellTiter Glo; read-out: IC50, cell viability, Ba/F3 EGFR wt. It is filed as cell-based, mouse. The protocol:
as §1, §2, §3, §4, §5

Chain of Ba/F3 ERBB2-V777_G778insGC (P04626 with tags, fused parts or gaps INS778CG): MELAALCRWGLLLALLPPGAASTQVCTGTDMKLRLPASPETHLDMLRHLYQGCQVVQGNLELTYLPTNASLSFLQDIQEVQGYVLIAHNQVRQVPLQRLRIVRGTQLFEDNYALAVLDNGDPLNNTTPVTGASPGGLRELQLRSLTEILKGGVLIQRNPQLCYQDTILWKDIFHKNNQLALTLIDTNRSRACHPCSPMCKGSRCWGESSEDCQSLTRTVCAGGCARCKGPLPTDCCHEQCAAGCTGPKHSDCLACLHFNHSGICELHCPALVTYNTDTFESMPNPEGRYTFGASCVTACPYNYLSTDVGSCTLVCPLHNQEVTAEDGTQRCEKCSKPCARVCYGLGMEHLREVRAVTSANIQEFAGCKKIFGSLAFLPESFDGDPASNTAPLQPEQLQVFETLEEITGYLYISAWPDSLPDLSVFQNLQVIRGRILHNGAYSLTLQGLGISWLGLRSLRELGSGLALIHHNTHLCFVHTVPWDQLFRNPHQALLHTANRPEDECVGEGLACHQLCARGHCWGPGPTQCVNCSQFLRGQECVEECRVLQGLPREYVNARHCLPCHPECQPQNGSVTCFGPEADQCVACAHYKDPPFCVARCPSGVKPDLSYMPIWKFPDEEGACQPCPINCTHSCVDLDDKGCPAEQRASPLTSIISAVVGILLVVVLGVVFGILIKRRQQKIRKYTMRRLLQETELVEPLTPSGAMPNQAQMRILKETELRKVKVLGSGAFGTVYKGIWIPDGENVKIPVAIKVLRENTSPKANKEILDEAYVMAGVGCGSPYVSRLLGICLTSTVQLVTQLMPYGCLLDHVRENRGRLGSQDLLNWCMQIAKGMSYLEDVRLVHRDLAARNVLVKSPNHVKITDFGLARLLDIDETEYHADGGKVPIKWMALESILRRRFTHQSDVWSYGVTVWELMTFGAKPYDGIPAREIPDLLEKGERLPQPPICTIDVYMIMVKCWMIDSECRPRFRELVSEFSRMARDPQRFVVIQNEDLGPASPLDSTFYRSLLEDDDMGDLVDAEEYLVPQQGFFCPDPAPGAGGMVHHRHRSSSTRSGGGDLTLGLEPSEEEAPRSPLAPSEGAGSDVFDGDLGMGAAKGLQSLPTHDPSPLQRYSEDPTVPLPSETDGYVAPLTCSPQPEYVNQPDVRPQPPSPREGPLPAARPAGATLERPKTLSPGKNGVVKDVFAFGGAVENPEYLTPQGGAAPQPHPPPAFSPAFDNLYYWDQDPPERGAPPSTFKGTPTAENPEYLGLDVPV
Chain of Ba/F3 ERBB2-G776VC (P04626 with tags, fused parts or gaps DELINS776-776VC): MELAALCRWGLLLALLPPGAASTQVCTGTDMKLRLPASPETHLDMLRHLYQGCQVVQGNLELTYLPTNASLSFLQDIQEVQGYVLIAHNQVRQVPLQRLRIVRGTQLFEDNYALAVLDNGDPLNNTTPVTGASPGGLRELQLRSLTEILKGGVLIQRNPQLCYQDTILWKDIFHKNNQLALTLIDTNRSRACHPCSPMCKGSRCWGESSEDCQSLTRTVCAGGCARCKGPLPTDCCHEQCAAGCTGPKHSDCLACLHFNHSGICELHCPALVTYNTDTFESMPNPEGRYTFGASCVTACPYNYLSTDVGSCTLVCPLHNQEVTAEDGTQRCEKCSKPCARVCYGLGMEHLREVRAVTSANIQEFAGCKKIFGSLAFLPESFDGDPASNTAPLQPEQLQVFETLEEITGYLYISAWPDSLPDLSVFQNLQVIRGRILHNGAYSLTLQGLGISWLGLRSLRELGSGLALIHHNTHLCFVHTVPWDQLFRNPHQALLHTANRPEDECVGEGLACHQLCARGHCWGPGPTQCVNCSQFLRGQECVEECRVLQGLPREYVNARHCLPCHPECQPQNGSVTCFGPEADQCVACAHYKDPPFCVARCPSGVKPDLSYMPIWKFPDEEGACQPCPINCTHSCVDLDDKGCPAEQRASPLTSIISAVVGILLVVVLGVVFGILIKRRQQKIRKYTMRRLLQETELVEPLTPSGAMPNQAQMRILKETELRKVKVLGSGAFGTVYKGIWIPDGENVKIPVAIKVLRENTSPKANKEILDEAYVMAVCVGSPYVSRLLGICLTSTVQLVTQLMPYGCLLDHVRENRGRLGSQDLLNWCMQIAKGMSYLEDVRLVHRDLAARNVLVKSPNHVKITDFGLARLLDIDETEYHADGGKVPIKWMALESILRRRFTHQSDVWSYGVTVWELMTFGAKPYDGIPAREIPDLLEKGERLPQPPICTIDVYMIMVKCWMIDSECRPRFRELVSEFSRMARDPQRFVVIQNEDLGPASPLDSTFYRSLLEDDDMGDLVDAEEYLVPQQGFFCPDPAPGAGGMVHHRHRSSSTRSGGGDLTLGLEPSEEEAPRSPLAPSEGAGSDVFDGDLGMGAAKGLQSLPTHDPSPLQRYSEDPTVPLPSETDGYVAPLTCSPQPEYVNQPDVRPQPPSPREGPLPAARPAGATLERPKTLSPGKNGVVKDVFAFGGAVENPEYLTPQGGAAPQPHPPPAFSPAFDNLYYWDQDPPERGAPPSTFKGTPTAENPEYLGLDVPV
T1 sequence (P00533 25-1210): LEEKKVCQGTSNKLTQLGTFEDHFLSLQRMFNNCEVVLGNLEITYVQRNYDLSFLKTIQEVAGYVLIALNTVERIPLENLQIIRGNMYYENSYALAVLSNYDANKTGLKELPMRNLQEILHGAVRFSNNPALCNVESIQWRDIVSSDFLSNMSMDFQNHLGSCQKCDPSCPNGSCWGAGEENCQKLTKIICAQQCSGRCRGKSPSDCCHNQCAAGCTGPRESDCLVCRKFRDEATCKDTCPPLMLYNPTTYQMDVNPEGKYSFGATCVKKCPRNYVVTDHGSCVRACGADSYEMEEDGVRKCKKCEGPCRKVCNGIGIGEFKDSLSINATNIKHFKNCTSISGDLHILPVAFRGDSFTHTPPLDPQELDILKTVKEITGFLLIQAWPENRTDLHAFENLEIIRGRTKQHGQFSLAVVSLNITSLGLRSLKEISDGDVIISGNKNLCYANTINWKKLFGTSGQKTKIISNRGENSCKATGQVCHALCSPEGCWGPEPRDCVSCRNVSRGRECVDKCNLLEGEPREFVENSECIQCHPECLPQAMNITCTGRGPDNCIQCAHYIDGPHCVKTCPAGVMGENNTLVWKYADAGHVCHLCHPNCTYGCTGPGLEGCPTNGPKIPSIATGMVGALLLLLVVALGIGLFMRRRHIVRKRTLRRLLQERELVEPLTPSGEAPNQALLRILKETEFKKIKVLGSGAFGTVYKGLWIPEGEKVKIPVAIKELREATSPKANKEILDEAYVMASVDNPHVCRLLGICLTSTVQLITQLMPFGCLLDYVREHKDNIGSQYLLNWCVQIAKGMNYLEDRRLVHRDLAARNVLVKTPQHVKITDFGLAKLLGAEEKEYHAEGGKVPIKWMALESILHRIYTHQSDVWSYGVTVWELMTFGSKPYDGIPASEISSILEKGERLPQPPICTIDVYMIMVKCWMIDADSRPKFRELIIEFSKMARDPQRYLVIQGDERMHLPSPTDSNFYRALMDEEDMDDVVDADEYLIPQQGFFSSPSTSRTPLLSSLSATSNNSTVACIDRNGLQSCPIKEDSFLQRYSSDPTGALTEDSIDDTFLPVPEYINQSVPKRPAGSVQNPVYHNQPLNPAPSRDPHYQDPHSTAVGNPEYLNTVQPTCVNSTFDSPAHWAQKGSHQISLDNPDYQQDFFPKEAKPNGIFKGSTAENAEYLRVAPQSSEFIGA
Chain of BaF3_EGFR-H773_V774insNPH (P00533 with tags, fused parts or gaps DUP771-773): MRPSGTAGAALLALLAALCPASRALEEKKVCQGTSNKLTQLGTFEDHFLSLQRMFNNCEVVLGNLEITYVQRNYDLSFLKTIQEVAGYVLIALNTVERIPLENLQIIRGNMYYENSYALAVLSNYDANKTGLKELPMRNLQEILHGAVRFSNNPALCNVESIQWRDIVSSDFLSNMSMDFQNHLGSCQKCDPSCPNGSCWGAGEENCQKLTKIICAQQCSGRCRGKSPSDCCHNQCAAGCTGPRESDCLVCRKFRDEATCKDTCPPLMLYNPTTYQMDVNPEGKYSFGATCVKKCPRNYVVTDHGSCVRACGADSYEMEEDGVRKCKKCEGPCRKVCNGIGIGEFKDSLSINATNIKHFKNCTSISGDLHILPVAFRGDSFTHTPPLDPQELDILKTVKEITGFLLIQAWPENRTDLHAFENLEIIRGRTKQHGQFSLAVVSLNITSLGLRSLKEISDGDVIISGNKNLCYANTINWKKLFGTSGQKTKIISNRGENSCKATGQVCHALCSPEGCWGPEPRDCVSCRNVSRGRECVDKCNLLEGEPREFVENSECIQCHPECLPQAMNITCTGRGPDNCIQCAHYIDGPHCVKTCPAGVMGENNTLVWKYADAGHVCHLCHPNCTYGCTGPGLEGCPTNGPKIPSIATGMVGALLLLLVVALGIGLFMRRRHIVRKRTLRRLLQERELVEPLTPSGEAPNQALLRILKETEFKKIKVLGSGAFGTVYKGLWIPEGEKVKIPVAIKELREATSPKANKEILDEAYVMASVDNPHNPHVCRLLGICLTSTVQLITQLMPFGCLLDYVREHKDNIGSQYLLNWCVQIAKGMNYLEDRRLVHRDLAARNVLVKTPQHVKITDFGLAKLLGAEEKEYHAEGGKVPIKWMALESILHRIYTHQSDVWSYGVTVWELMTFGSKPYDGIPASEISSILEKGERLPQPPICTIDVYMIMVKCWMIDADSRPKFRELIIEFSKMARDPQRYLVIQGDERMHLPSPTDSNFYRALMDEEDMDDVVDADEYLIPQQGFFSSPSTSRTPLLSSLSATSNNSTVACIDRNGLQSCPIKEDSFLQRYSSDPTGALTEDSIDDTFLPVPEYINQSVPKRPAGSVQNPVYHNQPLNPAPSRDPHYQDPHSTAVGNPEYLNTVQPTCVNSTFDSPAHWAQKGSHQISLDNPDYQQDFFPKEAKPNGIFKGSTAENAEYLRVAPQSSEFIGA

Take `C=C1CCN(c2ccc3ncnc(Nc4ccc(Oc5ccn6ncnc6c5)c(C)c4)c3c2)C1=O` [Compound 1, 1-[4-[(3-methyl-4-[[1,2,4]triazolo[1,5-a]pyridin-7-yloxy]phenyl)amino]quinazolin-6-yl]-3-methylidenepyrrolidin-2-one]: the 50% inhibitory concentration (IC50) (commonly the concentration that gives 50% inhibition) in assay [1] was 7.45 nM; in [3] it was 1230 nM; in assay [4] it was 15 nM. For the same compound, the GI50 in [2] is 4510 nM; in assay [5], 4060 nM; in [6], 0.82 nM; in assay [7], 16 nM; in assay [8], 9830 nM; in assay [9], > 10000 nM.
In the case of `C=C1CCN(c2ccc3ncnc(Nc4ccc(Oc5ccn6ccnc6c5)c(C)c4)c3c2)C1=O` [Compound 4, 1-[4-[(4-[imidazo[1,2-a]pyridin-7-yloxy]-3-methylphenyl)amino]quinazolin-6-yl]-3-methylidenepyrrolidin-2-one], the IC50 in assay [1] turned out to be 16.3 nM; in assay [3], 205 nM. Moreover, the figures for the GI50 in [6] and in [7] were 1.8 nM and 7.5 nM, respectively.
